Like-named read-outs stand apart in the source and are kept apart here.
Tests used:
[1] = tested on: Glomerella lacenarium (Colletotrichum lacenarium); assay: Glomerella lacenarium (Colletotrichum lacenarium) liquid culture / cucumber / preventative (anthracnose); format: cell-based; conditions: read-out: disease control (inhibition of growth, photometric) compared to untreated control
Protocol: Mycelia fragments or conidia suspensions of a fungus prepared either freshly from liquid cultures of the fungus or from cryogenic storage, are directly mixed into nutrient broth. DMSO solutions of the test compound (max. 10 mg/ml) are diluted with 0.025% Tween20 by a factor of 50 and 10 μL of this solution is pipetted into a microtiter plate (96-well format). The nutrient broth containing the fungal spores/mycelia fragments is then added to give an end concentration of the tested compound. The test plates are incubated in the dark at 24° C. and 96% relative humidity. The inhibition of fungal growth is determined photometrically after 2 to 7 days, depending on the pathosystem, and percent antifungal activity relative to the untreated check is calculated.
Example 4: Fungicidal Activity Against Glomerella lacenarium (Colletotrichum lacenarium) Liquid Culture/Cucumber/Preventative (Anthracnose)
Conidia of the fungus from cryogenic storage are directly mixed into nutrient broth (PDB—potato dextrose broth). After placing a (DMSO) solution of test compound into a microtiter plate (96-well format), the nutrient broth containing the fungal spores is added. The test plates are incubated at 24° C. and the inhibition of growth is measured photometrically 3 to 4 days after application.
The following compounds at 20 ppm in the applied formulation give at least 80% disease control in this test when compared to untreated control under the same conditions, which show extensive disease development.

[2] = tested on: Puccinia recondita f. Sp. Tritici; assay: Puccinia recondita f. sp. tritici / wheat / leaf disc preventative (brown rust); format: in vivo; conditions: foliar, read-out: disease control compared to untreated control leaf disks
Protocol: Leaf disks or leaf segments of various plant species are cut from plants grown in a greenhouse. The cut leaf disks or segments are placed in multiwell plates (24-well format) onto water agar. The leaf disks are sprayed with a test solution before (preventative) or after (curative) inoculation. Compounds to be tested are prepared as DMSO solutions (max. 10 mg/mL) which are diluted to the appropriate concentration with 0.025% Tween20 just before spraying. The inoculated leaf disks or segments are incubated under defined conditions (temperature, relative humidity, light, etc.) according to the respective test system. A single evaluation of disease level is carried out 3 to 14 days after inoculation, depending on the pathosystem. Percent disease control relative to the untreated check leaf disks or segments is then calculated.
Example 1: Fungicidal Activity Against Puccinia recondita f. Sp. Tritici/Wheat/Leaf Disc Preventative (Brown Rust)
Wheat leaf segments cv. Kanzler were placed on agar in multiwell plates (24-well format) and sprayed with the formulated test compound diluted in water. The leaf disks were inoculated with a spore suspension of the fungus 1 day after application. The inoculated leaf segments were incubated at 19° C. and 75% relative humidity (rh) under a light regime of 12 hours light/12 hours darkness in a climate cabinet and the activity of a compound was assessed as percent disease control compared to untreated when an appropriate level of disease damage appears in untreated check leaf segments (7 to 9 days after application).
The following compounds at 200 ppm in the applied formulation give at least 80% disease control in this test when compared to untreated control leaf disks under the same conditions, which show extensive disease development.

[3] = 20 ppm in the applied formulation, liquid culture in PDB, 24° C., 3 to 4 days after application
[4] = 200 ppm in the applied formulation, wheat leaf segments, preventative, assessed 7 to 9 days after application

CCCON(Cc1ccc(-c2noc(C(F)(F)F)n2)cc1)C(=O)C(=O)CCC [Compound 1.7, 2-oxo-N-propoxy-N-[[4-[5-(trifluoromethyl)-1,2,4-oxadiazol-3-yl]phenyl]methyl]pentanamide]
inhibition at 20 ppm [1, 3]: ≥ 80%

CCCON(Cc1ccc(-c2noc(C(F)(F)F)n2)cc1)C(=O)C(C)=O [Compound 1.8, 2-oxo-N-propoxy-N-[[4-[5-(trifluoromethyl)-1,2,4-oxadiazol-3-yl]phenyl]methyl]propanamide]
inhibition at 20 ppm [1, 3]: ≥ 80% | pest or weed control at 200 ppm [2, 4]: ≥ 80%

CCCC(=O)C(=O)N(Cc1ccc(-c2noc(C(F)(F)F)n2)cc1)C(C)CC (centres unmarked) [Compound 1.11, 2-oxo-N-sec-butyl-N-[[4-[5-(trifluoromethyl)-1,2,4-oxadiazol-3-yl]phenyl]methyl]pentanamide]
inhibition at 20 ppm [1, 3]: ≥ 80%

CCCC(=O)C(=O)N(Cc1ccc(-c2noc(C(F)(F)F)n2)cc1)CC1CCCO1 (centres unmarked) [Compound 1.13, 2-oxo-N-(tetrahydrofuran-2-ylmethyl)-N-[[4-[5-(trifluoromethyl)-1,2,4-oxadiazol-3-yl]phenyl]methyl]pentanamide]
inhibition at 20 ppm [1, 3]: ≥ 80% | pest or weed control at 200 ppm [2, 4]: ≥ 80%

CC(=O)C(=O)N(Cc1ccc(-c2noc(C(F)(F)F)n2)cc1)OCC=C(Cl)Cl [Compound 1.22, N-(3,3-dichloro-allyloxy)-2-oxo-N-[[4-[5-(trifluoromethyl)-1,2,4-oxadiazol-3-yl]phenyl]methyl]propanamide]
inhibition at 20 ppm [1, 3]: ≥ 80% | pest or weed control at 200 ppm [2, 4]: ≥ 80%

CCCC(=O)C(=O)N(Cc1ccc(-c2noc(C(F)(F)F)n2)cc1)OCC=C(Cl)Cl [Compound 1.23, N-(3,3-dichloro-allyloxy)-2-oxo-N-[[4-[5-(trifluoromethyl)-1,2,4-oxadiazol-3-yl]phenyl]methyl]pentanamide]
inhibition at 20 ppm [1, 3]: ≥ 80%

CCCC(=O)C(=O)N(Cc1ccc(-c2noc(C(F)(F)F)n2)cc1)OCc1ccc(Cl)cc1 [Compound 1.24, N-[(4-chlorophenyl)methoxy]-2-oxo-N-[[4-[5-(trifluoromethyl)-1,2,4-oxadiazol-3-yl]phenyl]methyl]pentanamide]
inhibition at 20 ppm [1, 3]: ≥ 80%

CC(=O)C(=O)NCc1ccc(-c2noc(C(F)(F)F)n2)cn1 [Compound 1.28, 2-oxo-N-[[5-[5-(trifluoromethyl)-1,2,4-oxadiazol-3-yl]-2-pyridyl]methyl]propanamide]
inhibition at 20 ppm [1, 3]: ≥ 80%

CC(=O)C(=O)NCc1ccc(-c2noc(C(F)(F)F)n2)cc1Cl [Compound 1.60, N-[[2-chloro-4-[5-(trifluoromethyl)-1,2,4-oxadiazol-3-yl]phenyl]methyl]-2-oxo-propanamide]
inhibition at 20 ppm [1, 3]: ≥ 80%

CC(C)CC(=O)C(=O)NCc1c(F)cc(-c2noc(C(F)(F)F)n2)cc1F [Compound 1.69, N-[[2,6-difluoro-4-[5-(trifluoromethyl)-1,2,4-oxadiazol-3-yl]phenyl]methyl]-4-methyl-2-oxo-pentanamide]
inhibition at 20 ppm [1, 3]: ≥ 80% | pest or weed control at 200 ppm [2, 4]: ≥ 80%

CON=C(C(=O)N(Cc1ccc(-c2noc(C(F)(F)F)n2)cc1)OC)c1ccccc1 [Compound 2.4, N-methoxy-2-methoxyimino-2-phenyl-N-[[4-[5-(trifluoromethyl)-1,2,4-oxadiazol-3-yl]phenyl]methyl]acetamide]
inhibition at 20 ppm [1, 3]: ≥ 80% | pest or weed control at 200 ppm [2, 4]: ≥ 80%

CO/N=C(\C#N)C(=O)N(Cc1ccc(-c2noc(C(F)(F)F)n2)cc1)C1CC1 [Compound 2.15, (1E)-2-[cyclopropyl-[[4-[5-(trifluoromethyl)-1,2,4-oxadiazol-3-yl]phenyl]methyl]amino]-N-methoxy-2-oxo-acetimidoyl cyanide]
inhibition at 20 ppm [1]: ≥ 80% | pest or weed control at 200 ppm [2]: ≥ 80%

COCCN(Cc1ccccc1)C(=O)C(=O)Nc1ccc(-c2noc(C(F)(F)F)n2)cc1 [Compound 4.15]
inhibition at 20 ppm [1, 3]: ≥ 80% | pest or weed control at 200 ppm [2, 4]: ≥ 80%

O=C(Nc1ccc(-c2noc(C(F)(F)F)n2)cc1)C(=O)N(Cc1ccc2c(c1)OCO2)CC1OCCO1 [Compound 4.16, N′-(1,3-benzodioxol-5-ylmethyl)-N′-(1,3-dioxolan-2-ylmethyl)-N-[4-[5-(trifluoromethyl)-1,2,4-oxadiazol-3-yl]phenyl]oxamide]
inhibition at 20 ppm [1, 3]: ≥ 80%

N#CCCN(CCC#N)C(=O)C(=O)Nc1ccc(-c2noc(C(F)(F)F)n2)cc1 [Compound 4.18, N′,N′-bis(2-cyanoethyl)-N-[4-[5-(trifluoromethyl)-1,2,4-oxadiazol-3-yl]phenyl]oxamide]
pest or weed control at 200 ppm [2, 4]: ≥ 80%

CN(C(=O)C(=O)Nc1ccc(-c2noc(C(F)(F)F)n2)cc1)C1CCN(C(=O)OC(C)(C)C)C1 (centres unmarked) [Compound 4.22, tert-butyl 3-[methyl-[2-oxo-2-[4-[5-(trifluoromethyl)-1,2,4-oxadiazol-3-yl]anilino]acetyl]amino] pyrrolidine-1-carboxylate]
pest or weed control at 200 ppm [2, 4]: ≥ 80%

NC(=O)C(=O)N(Cc1ccc(-c2noc(C(F)(F)F)n2)cc1)Cc1ccco1 [Compound 4.24, N′-(2-furylmethyl)-N′-[[4-[5-(trifluoromethyl)-1,2,4-oxadiazol-3-yl]phenyl]methyl] oxamide]
inhibition at 20 ppm [1, 3]: ≥ 80% | pest or weed control at 200 ppm [2, 4]: ≥ 80%

CN(C)C(=O)C(=O)N(Cc1ccc(-c2noc(C(F)(F)F)n2)cc1)OCC=C(Cl)Cl [Compound 4.31, N′-(3,3-dichloroallyloxy)-N,N-dimethyl-N′-[[4-[5-(trifluoromethyl)-1,2,4-oxadiazol-3-yl]phenyl]methyl] oxamide]
inhibition at 20 ppm [1, 3]: ≥ 80% | pest or weed control at 200 ppm [2, 4]: ≥ 80%

NC(=O)C(=O)N(Cc1ccc(-c2noc(C(F)(F)F)n2)cc1)OCC=C(Cl)Cl [Compound 4.32, N′-(3,3-dichloroallyloxy)-N′-[[4-[5-(trifluoromethyl)-1,2,4-oxadiazol-3-yl]phenyl]methyl] oxamide]
inhibition at 20 ppm [1, 3]: ≥ 80% | pest or weed control at 200 ppm [2, 4]: ≥ 80%

CN(C)C(=O)C(=O)N(Cc1ccc(-c2noc(C(F)(F)F)n2)cc1)OCc1ccc(Cl)cc1 [Compound 4.33, N′-[(4-chlorophenyl)methoxy]-N,N-dimethyl-N′-[[4-[5-(trifluoromethyl)-1,2,4-oxadiazol-3-yl]phenyl]methyl] oxamide]
inhibition at 20 ppm [1, 3]: ≥ 80%

CC(C)(C)CNC(=O)C(=O)NCc1ccc(-c2noc(C(F)(F)F)n2)cc1 [Compound 4.45, N′-(2,2-dimethylpropyl)-N-[[4-[5-(trifluoromethyl)-1,2,4-oxadiazol-3-yl]phenyl]methyl] oxamide]
inhibition at 20 ppm [1, 3]: ≥ 80%

CC(C)CNC(=O)C(=O)NCc1ccc(-c2noc(C(F)(F)F)n2)cc1 [Compound 4.50, N′-isobutyl-N-[[4-[5-(trifluoromethyl)-1,2,4-oxadiazol-3-yl]phenyl]methyl] oxamide]
pest or weed control at 200 ppm [2, 4]: ≥ 80%

O=C(NCc1ccccc1)C(=O)NCc1ccc(-c2noc(C(F)(F)F)n2)cc1 [Compound 4.53, N-benzyl-N′-[[4-[5-(trifluoromethyl)-1,2,4-oxadiazol-3-yl]phenyl]methyl] oxamide]
pest or weed control at 200 ppm [2, 4]: ≥ 80%

NC(=O)C(=O)NCc1ccc(-c2noc(C(F)(F)F)n2)cc1F [Compound 4.82, N′-[[2-fluoro-4-[5-(trifluoromethyl)-1,2,4-oxadiazol-3-yl]phenyl]methyl] oxarnide]
inhibition at 20 ppm [1, 3]: ≥ 80%

NC(=O)C(=O)NCc1ccc(-c2noc(C(F)(F)F)n2)c(F)c1 [Compound 4.83, N′-[[3-fluoro-4-[5-(trifluoromethyl)-1,2,4-oxadiazol-3-yl]phenyl]methyl] oxamide]
inhibition at 20 ppm [1, 3]: ≥ 80%

Source: US20180370927A1, “MICROBIOCIDAL OXADIAZOLE DERIVATIVES” (SYNGENTA PARTICIPATIONS AG, priority 2015, published 2018)
